Laboratory results from the NIST ThermoML archive (doi:10.1007/s10765-011-1128-2).

Conditions: Crystal

O [water]
Conditions	vapor or sublimation pressure [kPa]
223.15 K	0.003925
228.15 K	0.007147
233.15 K	0.01277
238.14 K	0.02221
243.16 K	0.03791
248.16 K	0.06315
253.14 K	0.103
258.15 K	0.165
263.15 K	0.2596
268.15 K	0.4016
273.16 K	0.6117
